Measurements as given in patent US20120093876A1, “Ophthalmic Formulations, Methods Of Manufacture And Methods of Normalizing Meibomian Gland Secretions” (Aciex, Inc., priority 2010, published 2012).
Structures can show the parent of a compound that is named as a salt.

Assays:
[1] = Comfort of hydrophilic excipient bases; type: in vivo; conditions: hydrophilic base
Source text: (§1) The purpose of this study was to investigate the feasibility of formulating Minocycline HCl in a ‘gelment’ with a medicated swab container closure. Specifically, formulation feasibility and stability with hydrophilic bases (PEG 400, propylene glycol, glycerol) investigated. Glycerin was unacceptable from a comfort perspective. […] (Following 3 weeks at 25/40, epi-minocycline was 20.7% for PEG 400 base and 2.9% for propylene glycol base.) Degradation was not detected following e-beam irradiation of Minocycline suspended in light mineral oil (single-point testing performed following irradiation—no stability evaluation).

[2] = Excipient compatibility stability screen, minocycline quantitated by HPLC; conditions: in mineral oil, relative to castor and olive oil
[3] = Degradation after e-beam irradiation; type: physicochemical; conditions: suspended in light mineral oil; single-point testing following irradiation
Source text: as §1

[4] = Batch uniformity and stability of micronized and unmicronized oil and ointment formulations; type: physicochemical; conditions: jetmilling or cryomilling; 2 batches of drug substance
Description: Two Minocycline HCl drug substance batches were micronized (by jetmilling and cryomilling) and evaluated for chemical properties post-micronization. Jetmilled, cryomilled, and unmicronized oil and ointment formulations were evaluated for batch uniformity and stability.
Oil formulations were 100% oil and ointments were 100% petrolatum. […]. […] evaluated with respect to solubility in light mineral oil.
[…]. The oil suspensions in this study provided consistent T0 results, unlike the earlier oil formulations with unmicronized Minocycline HCl.

Which Comfort [1] does the source give for OCC(O)CO [Glycerin] here?
The Comfort was “unacceptable”.

Which “Stability (degree of epimerization) in excipient” value [2] does the source give for CN(C)c1ccc(O)c2c1C[C@H]1C[C@H]3[C@H](N(C)C)C(O)=C(C(N)=O)C(=O)[C@@]3(O)C(O)=C1C2=O [Minocycline HCl] here?
Its value is “greatest stability”.

What about the “Degradation following e-beam irradiation” value [3] of the same compound?
Its value is “not detected”.

What about the “Change in assay following micronization” value [4] of the same compound?
Its value is “No change”.
